According to patent publication US20220143148A1, “COMPOSITIONS AND METHODS FOR MODULATING CGRP SIGNALING TO REGULATE INTESTINAL INNATE LYMPHOID CELLS” (The Broad Institute, Inc., priority 2019, published 2022):

Columns and labels:
[1] = tested on: lung ILC2s; settings: co-stimulated with IL-33; cited from earlier work
[2] = tested on: KLRG1+ ILC2s; assay: IL-25-induced in vivo ILC2 activation model; design: species or system mouse
Source text: Intraperitoneal administration of α-CGRP impaired IL-25-induced expansion of KLRG1^+ ILC2s (FIGS. 5B and 12A), consistent with the in vitro results. Recent work has shown that intestinal KLRG1^+ ILC2s can migrate to mesenteric lymph nodes (mLNs) and other tissues during inflammation via sphingosine 1-phosphate (S1P)-mediated chemotaxis (Huang et al., 2018). To determine whether α-CGRP primarily impacts intestinal or mLN ILC2s, Applicants relied on the fact that intestinal GATA3^+ ILC2s are generally phenotypically KLRG1^+ST2^− (data not shown), whereas mLN ILC2s are mainly ST2^+ at steady state (FIG. 5C). IL-25 administration increased the frequency of both KLRG1^+ST2^− inflammatory ILC2s and ST2^+ ILC2s in mLNs (FIGS. 5C-E and 12B). […] Thus, α-CGRP preferentially regulates the response of intestinal KLRG1^+ST2^− ILC2s. […] Taken together, α-CGRP antagonized expansion of intestinal KLRG1^+ ILC2s in two different type 2 inflammatory models.
To activate ILC2s in vivo, 200 ng of IL-25 was intraperitoneally injected into 7-10 weeks old mice daily for two days. 1 μg α-CGRP was injected together as noted.
(§1) Flow cytometry and cell sorting. Cells were washed and suspended in MACS buffer (pH 7.4; PBS plus 2% FCS and 2 mM EDTA). Nonspecific antibody binding was blocked with CD16/CD32 (2.4G2) antibody for 15 min on ice. Cells were then stained with antibody cocktails for 30 min at 4° C. Lineage-positive cells were excluded for analyzing ILCs by staining for CD3ε (145-2C11), CD5 (53-7.3), CD19 (6D5), CD11b (M1/70), CD8 (53-6.7), CD11c (N418), Gr-1 (RB6-8C5), TCRγδ (eBioGL3 (GL-3, GL3)) and TCRβ (H57-597). To analyze mast cells, lineage-positive cells were excluded by staining for CD3ε, CD5, CD19, CD11c and SiglecF (E50-2440). For surface staining, antibodies for KLRG1 (2F1), CD45 (30-F11), CD127 (A7R34), CCR6 (29-2L17), NKp46 (29A1.4), CD90.2 (53-2.1), FcεRI (Mar-1), IgD (11-26c.2a) and ST2 (DJ8) were used. For intracellular staining, cells were fixed and permeabilized using the Foxp3 transcription factor staining buffer set, followed by staining with anti-GATA-3 (TWAJ) or anti-RORγt (B2D) antibodies. Dead cells were excluded with 7-AAD or Fixable Viability Dye eFluor 780. Flow cytometry was performed on Cytoflex (Beckman Coulter) and analyzed with FlowJo software. Sorting was performed with the SH800S Cell Sorter (Sony Biotechnology).
Immunofluorescence staining and imaging. The small intestines were fixed in 2% PFA, embedded in O.C.T. Compound and sliced into 10 μm by frozen section. The slides were blocked with 0.1% Triton X-100, 2% FCS and donkey serum. […] The images were analyzed with ImageJ.

[3] = tested on: KLRG1+ ILC2s; assay: In vitro proliferation assay (CellTrace Violet, flow cytometry); assay type: cell-based, mouse; settings: IL-25 plus α-CGRP, 60 hours; P=0.01, t-test
Protocol: as §1
ILC2 culture. […]

[4] = tested on: intestinal KLRG1+ ILC2s; assay: Bulk RNA-seq of intestinal KLRG1+ ILC2s stimulated in vitro; assay type: cell-based, mouse
Source text: To determine if α-CGRP can directly trigger signaling in ILC2s and impact their transcriptional states under inflammatory conditions, Applicants performed bulk RNA-seq of KLRG1^+ ILC2s isolated from the small intestine and stimulated in vitro with IL-25 alone or together with α-CGRP. […] Thus, α-CGRP inhibits IL-25-induced proliferation and activation of intestinal KLRG1+ILC2s.
The presence at homeostasis of α-CGRP receptors on ILC2s and α-CGRP's expression on ChAT^+ intestinal neurons led Applicants to hypothesize that it has an effect on ILC2s during homeostasis. To test this hypothesis, Applicants next measured the expression profiles of intestinal KLRG1^+ ILC2s stimulated in vitro by α-CGRP alone, and identified genes differentially expressed under this signal (FIG. 6D, Methods).
ILC2 culture. Sort-purified intestinal KLRG1^+ ILC2s were incubated in RPMI supplemented with 10% FCS, 10 mM Hepes, 1 mM sodium pyruvate, 10% FBS, 80 μm 2-mercaptoethanol, 2 mM glutamine, 100 U/ml penicillin, […] streptomycin, 100 ng/ml IL-2 and 100 ng/ml IL-7 in 96-well round bottom plate at 37° C. and 5% CO2. If indicated, the culture was supplemented with 100 ng/ml IL-25. For the in vitro proliferation assay, cells from different mice were pooled and labeled with CellTrace Violet, and then cultured at 1,000-1,500 cells per well with 10 μg/ml α-CGRP for 60 hours. When indicated, 10 μM forskolin or 1 μM SQ 22, 536 in DMSO was supplied and cells were cultured for 40 hours. For bulk RNA-seq, cells from individual mice were stimulated at 200 cells per well with 0.4 μg/ml α-CGRP for 3 hours. For bulk ATAC-seq, cells were stimulated with 0.4 μg/ml α-CGRP for 2 hours.
Bulk RNA-seq. 200 ILC2s from each condition were lysed in 10 ul TCL buffer plus 0.5% 2-Mercaptoethanol. Libraries were processed with SMART-Seq2 (Picelli et al., 2013) with at least three replicates per condition, and paired-end sequenced (75 bp×2) with a […] Nextseq 500 high output V2 kit.
Reads were aligned to the mouse reference genome (NCBI 38, mm10) using Bowtie (Langmead et al., 2009) with default parameters, and expression abundances were estimated using RSEM software (Li and Dewey, 2011). The differential gene expression analysis was performed with edgeR (Robinson et al., 2010) with default parameters.

In the case of “α-CGRP: neuropeptide alpha-calcitonin gene-related peptide, encoded by exon 5 of Calca; administered as peptide”, the “IL-5 expression in lung ILC2s” value [1] is listed as “increases”, the “frequency of KLRG1+ST2− ILC2s in mLNs” value ([2]; IL-25 co-administered with α-CGRP) is listed as “reduced” and the “IL-25-induced expansion of KLRG1+ ILC2s” value ([2]; intraperitoneal α-CGRP with IL-25, small intestine, IF) is listed as “impaired”. For the same substance, the IL-25-induced cell division [3] was “significantly suppressed”, the Il5 expression ([4]; IL-25 together with α-CGRP in vitro) was “further induced” and the IL-25-induced activation signature ([4]; IL-25 together with α-CGRP in vitro, adjusted P<0.001, t-test) was “significantly suppressed”. For the same substance, the “expression of adenylate cyclase-mediated GPCR signaling genes (Adrb2, Adora2a, Pde4b, Akap12) and cAMP response genes (Areg, Crem, Il5)” value ([4]; α-CGRP alone in vitro) was “induced expression” and the “expression of cell cycle arrest genes (Cdkn1a, Gadd45a, Akap12) and negative regulators of ILC2 expansion (Adrb2, Pdcd1)” value ([4]; α-CGRP alone in vitro) was “induced expression”.
